# Reference: ChEMBL document CHEMBL1201862, “PubChem BioAssay data set” (2004)
# Calls of active or inactive are those of the source.
# What was measured:
# Nonstructural protein 1 = Nonstructural protein 1 (Influenza A virus, UniProt Q194T2); format: functional, Influenza A virus (A/California/07/2009(H1N1))
# [1] = NIH-3T3 fibroblast cytotoxicity, dose response, cytotoxicity control, cell-based, fluorescence, Alamar Blue, secondary assay (AID 2327); format: functional;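 further: NIH-3T3 mouse fibroblasts cultured with fluconazole at 8 µg/mL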
# Beta-galactosidase = Beta-galactosidase (Escherichia coli, UniProt Q8VNN2); assay: detection-enzyme interference by beta-gal modulators – biochemical, E. coli enzyme, set 3, artefact control for CCR6 antagonist project, dose response (AID 504712); format: functional
# Beta-galactosidase, sequence (Q8VNN2 whole entry): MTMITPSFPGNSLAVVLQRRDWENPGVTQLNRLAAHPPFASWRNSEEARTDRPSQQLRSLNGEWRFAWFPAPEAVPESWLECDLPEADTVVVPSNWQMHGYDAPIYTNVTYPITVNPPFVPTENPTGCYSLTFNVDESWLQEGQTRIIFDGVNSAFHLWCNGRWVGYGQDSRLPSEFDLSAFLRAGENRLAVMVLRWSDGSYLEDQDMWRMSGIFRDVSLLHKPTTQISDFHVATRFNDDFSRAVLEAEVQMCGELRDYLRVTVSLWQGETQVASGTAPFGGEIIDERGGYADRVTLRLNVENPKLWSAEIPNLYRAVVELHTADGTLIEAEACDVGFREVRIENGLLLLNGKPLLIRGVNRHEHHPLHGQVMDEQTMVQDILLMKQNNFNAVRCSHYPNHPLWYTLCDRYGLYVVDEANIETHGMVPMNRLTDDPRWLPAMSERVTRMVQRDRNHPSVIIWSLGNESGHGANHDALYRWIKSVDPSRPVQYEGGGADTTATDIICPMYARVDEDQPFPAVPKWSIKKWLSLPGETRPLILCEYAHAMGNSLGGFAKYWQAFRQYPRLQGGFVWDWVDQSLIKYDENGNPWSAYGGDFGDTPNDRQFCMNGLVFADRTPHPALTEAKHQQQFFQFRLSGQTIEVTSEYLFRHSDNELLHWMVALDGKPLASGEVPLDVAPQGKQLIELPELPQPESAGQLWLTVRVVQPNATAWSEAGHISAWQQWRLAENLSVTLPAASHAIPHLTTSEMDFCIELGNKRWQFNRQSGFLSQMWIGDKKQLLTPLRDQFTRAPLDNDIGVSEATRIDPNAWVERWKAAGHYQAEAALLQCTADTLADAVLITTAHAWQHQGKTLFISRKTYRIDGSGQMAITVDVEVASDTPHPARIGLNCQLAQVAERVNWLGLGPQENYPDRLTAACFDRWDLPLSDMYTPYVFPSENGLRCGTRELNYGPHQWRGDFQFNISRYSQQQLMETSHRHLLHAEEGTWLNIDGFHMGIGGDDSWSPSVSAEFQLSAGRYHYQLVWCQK
# [2] = molecular target: Alkaline phosphatase, placental type (Homo sapiens, UniProt P05187); assay: human placental alkaline phosphatase inhibition – biochemical, luminescence, confirmation (AID 1512); format: functional
# Alkaline phosphatase, placental type, sequence (P05187 whole entry): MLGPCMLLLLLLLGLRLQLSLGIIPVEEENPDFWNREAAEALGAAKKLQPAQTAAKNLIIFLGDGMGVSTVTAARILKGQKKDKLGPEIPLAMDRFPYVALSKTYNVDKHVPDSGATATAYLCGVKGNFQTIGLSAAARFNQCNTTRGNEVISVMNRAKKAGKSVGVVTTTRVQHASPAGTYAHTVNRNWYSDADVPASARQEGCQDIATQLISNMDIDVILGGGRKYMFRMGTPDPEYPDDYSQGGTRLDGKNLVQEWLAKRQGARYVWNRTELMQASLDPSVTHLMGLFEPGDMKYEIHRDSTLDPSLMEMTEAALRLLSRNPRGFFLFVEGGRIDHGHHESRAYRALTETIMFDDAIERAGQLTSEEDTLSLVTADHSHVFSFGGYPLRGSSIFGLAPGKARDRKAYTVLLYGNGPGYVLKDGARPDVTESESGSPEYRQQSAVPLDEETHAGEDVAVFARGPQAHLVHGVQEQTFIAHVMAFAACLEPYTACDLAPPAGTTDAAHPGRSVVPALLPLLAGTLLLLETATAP
# [3] = molecular target: T1, Alkaline phosphatase, tissue-nonspecific isozyme (Homo sapiens, UniProt P05186); assay: potency against alkaline phosphatase TNAP – biochemical, luminescent, dose response, SAR follow-up (AID 1056)
# T1 sequence (P05186 whole entry): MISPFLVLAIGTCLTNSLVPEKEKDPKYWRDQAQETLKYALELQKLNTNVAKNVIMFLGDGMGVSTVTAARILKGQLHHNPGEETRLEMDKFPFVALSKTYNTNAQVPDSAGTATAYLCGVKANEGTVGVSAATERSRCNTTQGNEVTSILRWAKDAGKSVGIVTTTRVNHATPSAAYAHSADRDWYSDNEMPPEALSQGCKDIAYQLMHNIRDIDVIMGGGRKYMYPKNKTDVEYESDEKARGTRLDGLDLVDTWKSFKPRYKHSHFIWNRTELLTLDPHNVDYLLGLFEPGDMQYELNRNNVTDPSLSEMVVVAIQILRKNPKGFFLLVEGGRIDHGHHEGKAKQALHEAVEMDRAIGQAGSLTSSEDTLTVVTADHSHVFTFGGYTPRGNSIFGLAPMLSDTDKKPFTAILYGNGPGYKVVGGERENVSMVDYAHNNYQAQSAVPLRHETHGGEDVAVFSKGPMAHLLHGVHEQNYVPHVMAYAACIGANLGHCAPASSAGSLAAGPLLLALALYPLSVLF
# [4] = molecular target: Glyceraldehyde-3-phosphate dehydrogenase (Homo sapiens, UniProt P04406)
# Glyceraldehyde-3-phosphate dehydrogenase, sequence (P04406 whole entry): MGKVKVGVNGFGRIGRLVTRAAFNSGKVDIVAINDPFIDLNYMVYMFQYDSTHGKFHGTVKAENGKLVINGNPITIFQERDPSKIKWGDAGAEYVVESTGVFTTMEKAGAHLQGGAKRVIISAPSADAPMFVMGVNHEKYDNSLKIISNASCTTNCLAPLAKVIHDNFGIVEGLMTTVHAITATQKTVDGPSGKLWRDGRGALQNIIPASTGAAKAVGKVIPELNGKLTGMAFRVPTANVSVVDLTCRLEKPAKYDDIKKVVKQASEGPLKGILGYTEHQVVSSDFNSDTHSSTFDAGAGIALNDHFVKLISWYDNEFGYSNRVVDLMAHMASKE
# Large T antigen = Large T antigen (Simian virus 40, UniProt P03070); format: functional, Betapolyomavirus macacae;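 further: Confirmatory-stage PubChem screen for compounds that inhibit SV40 T antigen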
# Large T antigen, sequence (P03070 whole entry, the tested form may be a part): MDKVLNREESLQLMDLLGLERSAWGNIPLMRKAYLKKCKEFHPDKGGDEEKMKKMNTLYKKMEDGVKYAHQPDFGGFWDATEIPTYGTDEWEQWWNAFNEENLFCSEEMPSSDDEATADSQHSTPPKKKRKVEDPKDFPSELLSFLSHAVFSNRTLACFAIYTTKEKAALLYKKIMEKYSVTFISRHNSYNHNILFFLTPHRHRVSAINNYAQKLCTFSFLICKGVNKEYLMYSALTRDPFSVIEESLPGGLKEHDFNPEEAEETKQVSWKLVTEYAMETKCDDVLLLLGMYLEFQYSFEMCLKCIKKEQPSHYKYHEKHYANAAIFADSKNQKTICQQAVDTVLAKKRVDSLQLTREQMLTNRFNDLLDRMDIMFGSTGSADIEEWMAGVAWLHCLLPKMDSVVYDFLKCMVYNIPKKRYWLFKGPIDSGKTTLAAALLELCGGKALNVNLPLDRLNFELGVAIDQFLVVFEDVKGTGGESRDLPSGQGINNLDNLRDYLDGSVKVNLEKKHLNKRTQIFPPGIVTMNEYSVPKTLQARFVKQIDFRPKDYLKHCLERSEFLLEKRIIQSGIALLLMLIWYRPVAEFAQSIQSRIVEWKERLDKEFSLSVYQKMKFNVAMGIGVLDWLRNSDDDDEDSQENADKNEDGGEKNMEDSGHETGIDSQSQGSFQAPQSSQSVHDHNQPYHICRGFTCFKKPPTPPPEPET
# [5] = molecular target: T2, RNA-binding protein pos-1 (Caenorhabditis elegans, UniProt G5EF15); assay: disruptors of C. elegans POS-1 RNA interaction – biochemical, fluorescence polarization, dose response (AID 1964);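 further: purified POS-1 fused to maltose binding protein made in E. coli; potency of compounds blocking POS-1 binding to fluorescent RNA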
# T2 sequence (G5EF15 whole entry): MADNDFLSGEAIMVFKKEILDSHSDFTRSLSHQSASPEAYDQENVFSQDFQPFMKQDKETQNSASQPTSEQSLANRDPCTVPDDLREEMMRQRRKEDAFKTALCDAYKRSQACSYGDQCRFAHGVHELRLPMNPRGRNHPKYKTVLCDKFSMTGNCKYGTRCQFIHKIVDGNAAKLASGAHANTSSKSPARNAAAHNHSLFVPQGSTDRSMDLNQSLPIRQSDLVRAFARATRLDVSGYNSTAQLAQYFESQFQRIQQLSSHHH
# [6] = molecular target: T3, Zinc finger protein mex-5 (Caenorhabditis elegans, UniProt Q9XUB2); assay: potency of MEX-5 RNA-binding blockers – biochemical, C. elegans, fluorescence polarization, dose response (AID 1960)
# T3 sequence (Q9XUB2 whole entry): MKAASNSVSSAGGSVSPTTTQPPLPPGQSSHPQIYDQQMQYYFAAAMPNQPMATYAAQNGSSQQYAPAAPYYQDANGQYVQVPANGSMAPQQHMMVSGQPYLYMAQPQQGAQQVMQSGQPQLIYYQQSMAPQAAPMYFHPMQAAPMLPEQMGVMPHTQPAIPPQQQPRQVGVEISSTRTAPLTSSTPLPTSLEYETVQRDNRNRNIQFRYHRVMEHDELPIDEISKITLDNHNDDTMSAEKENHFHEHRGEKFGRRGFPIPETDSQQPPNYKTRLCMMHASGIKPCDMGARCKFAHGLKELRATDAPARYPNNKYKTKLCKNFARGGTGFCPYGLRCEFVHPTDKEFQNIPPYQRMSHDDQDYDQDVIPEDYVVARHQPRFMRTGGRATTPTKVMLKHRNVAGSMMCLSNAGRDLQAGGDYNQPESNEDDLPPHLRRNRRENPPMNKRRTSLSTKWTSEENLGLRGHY
# [7] = molecular target: Dual specificity tyrosine-phosphorylation-regulated kinase 1A (Rattus norvegicus, UniProt Q63470); format: biochemical, Homo sapiens
# [8] = molecular target: Glucose-6-phosphate 1-dehydrogenase (Homo sapiens, UniProt P11413); assay: inhibition of Homo sapiens G6PD, dose series – biochemical, fluorescence, selectivity assay for P. falciparum G6PD inhibitor project, dose response (AID 504792); format: functional
# [9] = molecular target: Nucleotide-binding oligomerization domain-containing protein 2 (Homo sapiens, UniProt Q9HC29); assay: inhibition of NOD2-driven NF-kB reporter – cell-based, luminescence, uHTS, HEK293 (AID 1566); format: functional
# Nucleotide-binding oligomerization domain-containing protein 2, sequence (Q9HC29 whole entry, the tested form may be a part): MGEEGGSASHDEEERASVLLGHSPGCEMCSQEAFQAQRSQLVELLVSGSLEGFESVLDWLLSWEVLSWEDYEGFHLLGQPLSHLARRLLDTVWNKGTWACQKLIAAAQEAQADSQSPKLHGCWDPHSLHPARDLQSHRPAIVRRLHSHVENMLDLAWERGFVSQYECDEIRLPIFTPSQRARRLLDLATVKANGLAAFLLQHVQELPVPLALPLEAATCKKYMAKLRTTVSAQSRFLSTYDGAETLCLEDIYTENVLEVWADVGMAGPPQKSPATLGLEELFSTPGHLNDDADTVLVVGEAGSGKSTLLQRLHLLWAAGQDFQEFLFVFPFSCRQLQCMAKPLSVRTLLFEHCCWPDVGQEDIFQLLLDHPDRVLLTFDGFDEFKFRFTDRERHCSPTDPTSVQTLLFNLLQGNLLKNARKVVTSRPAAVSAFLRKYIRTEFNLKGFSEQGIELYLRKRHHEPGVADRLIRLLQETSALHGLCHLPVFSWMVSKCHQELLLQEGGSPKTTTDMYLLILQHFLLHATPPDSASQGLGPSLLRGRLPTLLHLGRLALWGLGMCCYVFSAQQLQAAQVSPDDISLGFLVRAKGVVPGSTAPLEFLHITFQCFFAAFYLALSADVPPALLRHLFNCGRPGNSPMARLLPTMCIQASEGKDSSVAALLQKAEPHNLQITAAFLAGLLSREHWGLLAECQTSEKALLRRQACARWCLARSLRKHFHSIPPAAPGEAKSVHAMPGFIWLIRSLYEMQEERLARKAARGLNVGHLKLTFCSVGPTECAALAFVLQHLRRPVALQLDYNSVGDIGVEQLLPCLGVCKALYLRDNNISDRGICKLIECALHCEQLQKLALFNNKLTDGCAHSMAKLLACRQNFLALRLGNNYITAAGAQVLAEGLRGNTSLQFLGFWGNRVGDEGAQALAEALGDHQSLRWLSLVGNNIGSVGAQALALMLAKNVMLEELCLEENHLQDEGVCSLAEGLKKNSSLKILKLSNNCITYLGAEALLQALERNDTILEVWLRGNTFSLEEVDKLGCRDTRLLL
# [10] = luciferase reporter signal suppression in cells – H4 neuroglioma cells, luminescence, dose response (AID 1990); format: functional, cell-based
# HEK293 [11] = assay: cells; format: functional, cell-based; settings: Homo sapiens
# [12] = Luminescence Cell-Based Dose Confirmation HTS to Identify Inhibitors of Platelet Dense Granule Release. [Related pubchem assays: 1663 (Primary HTS), 1678 (Summary of Project)]; format: functional
# HEK293 [13] = assay: cells; format: functional, cell-based; settings: Homo sapiens; remark: listed apart in the source
# HEK293 [14] = assay: NOD2 signaling inhibitors in MDP-stimulated cells, cell-based, uHTS, luminescence (AID 2001); format: functional; settings: Homo sapiens
# HEK293 [15] = assay: cells; format: functional, cell-based; settings: Homo sapiens; remark: listed apart in the source
# [16] = alpha-synuclein stem-loop luciferase translation blockers – H4 neuroglioma cells, luminescence, confirmation (AID 1988); format: functional, cell-based
# [17] = Luminescence Cell-Based Dose Response HTS to Identify Inhibitors of 5'UTR Stem-Loop Driven Prion Protein mRNA Translation in H4 Neuroglioblastoma Cells. [Related pubchem assays: 1827 (Project Summary), 1813 (Primary HTS)]; format: functional
# HEK293 [18] = assay: inhibition of NOD1-driven NF-kB reporter – cell-based, luminescence, uHTS, primary screen (AID 1578); format: functional; settings: Homo sapiens
# [19] = molecular target: Luciferin 4-monooxygenase (Photinus pyralis, UniProt P08659); assay: inhibition of purified Photinus pyralis luciferase – biochemical, luminescence, dose response (AID 1891)
# Luciferin 4-monooxygenase, sequence (P08659 whole entry): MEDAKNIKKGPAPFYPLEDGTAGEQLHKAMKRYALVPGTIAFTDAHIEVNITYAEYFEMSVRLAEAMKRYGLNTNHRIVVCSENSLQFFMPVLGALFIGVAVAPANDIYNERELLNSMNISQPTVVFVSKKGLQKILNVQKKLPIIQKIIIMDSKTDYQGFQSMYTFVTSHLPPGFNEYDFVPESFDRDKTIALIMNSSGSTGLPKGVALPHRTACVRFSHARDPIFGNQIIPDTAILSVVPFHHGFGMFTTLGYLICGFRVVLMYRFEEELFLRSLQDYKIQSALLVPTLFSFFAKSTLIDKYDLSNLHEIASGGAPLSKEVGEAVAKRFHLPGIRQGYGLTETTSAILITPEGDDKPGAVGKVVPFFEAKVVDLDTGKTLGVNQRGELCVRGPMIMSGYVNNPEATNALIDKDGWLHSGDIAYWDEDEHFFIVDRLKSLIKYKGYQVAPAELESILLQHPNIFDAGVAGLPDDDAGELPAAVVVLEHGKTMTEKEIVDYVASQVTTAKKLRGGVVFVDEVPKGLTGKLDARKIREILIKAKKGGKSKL
# Cytochrome P450 3A4 = Cytochrome P450 3A4 (Homo sapiens, UniProt P08684);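 further: CYP3A4 tested as one member of a cytochrome P450 panel screen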
# Cytochrome P450 3A4, sequence (P08684 whole entry): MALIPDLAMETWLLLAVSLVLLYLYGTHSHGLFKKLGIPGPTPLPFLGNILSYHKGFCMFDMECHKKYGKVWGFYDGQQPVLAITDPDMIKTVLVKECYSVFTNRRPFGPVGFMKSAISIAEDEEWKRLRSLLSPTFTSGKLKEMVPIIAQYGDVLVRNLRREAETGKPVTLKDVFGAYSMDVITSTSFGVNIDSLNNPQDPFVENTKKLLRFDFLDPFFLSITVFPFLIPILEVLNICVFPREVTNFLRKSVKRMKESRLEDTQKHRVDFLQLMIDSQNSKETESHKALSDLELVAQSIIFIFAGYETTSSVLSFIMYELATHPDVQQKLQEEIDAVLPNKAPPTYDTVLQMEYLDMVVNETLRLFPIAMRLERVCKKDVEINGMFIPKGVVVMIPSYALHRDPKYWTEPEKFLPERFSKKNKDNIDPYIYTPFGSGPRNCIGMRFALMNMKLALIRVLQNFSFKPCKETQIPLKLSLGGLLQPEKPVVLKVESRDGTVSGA
# Nonstructural protein 1, sequence (Q194T2 whole entry): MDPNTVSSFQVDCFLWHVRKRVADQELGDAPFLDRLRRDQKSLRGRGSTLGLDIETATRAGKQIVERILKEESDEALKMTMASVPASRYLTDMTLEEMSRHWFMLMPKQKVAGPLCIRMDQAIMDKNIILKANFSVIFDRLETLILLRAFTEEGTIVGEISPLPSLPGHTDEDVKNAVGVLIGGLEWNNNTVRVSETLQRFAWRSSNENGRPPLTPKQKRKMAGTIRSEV
smiles,measurement,setting,value
Cc1c(N=NC2=C(O)CC(C)(C)CC2=O)c(=O)n(-c2ccccc2)n1C,IC50,Nonstructural protein 1,3.63 µM (active)
same,EC50,[1],> 160 µM (inactive)
same,IC50,Beta-galactosidase,> 66.6 µM (inactive)
COc1ccc(C(=O)CSc2nc(C)cc(C)n2)cc1,IC50,[2],> 100 µM (inactive)
same,IC50,[3],> 100 µM (inactive)
O=C(c1cc(-c2cc(F)c(Cl)cc2Cl)[nH]n1)N1CCCCC1,IC50,[2],> 100 µM (inactive)
same,IC50,[3],0.322 µM (active)
same,IC50,[4],> 100 µM (not active)
COc1cc(-c2cc(=O)c3c(O)c(OC)c(OC)c(O)c3o2)ccc1O [ISOTHYMONIN],IC50,Large T antigen,6.77 µM (active)
same,EC50,[5],48 µM (active)
same,EC50,[6],7.08 µM (inconclusive)
same,AC50,[7],0.892 µM (active)
same,IC50,[8],> 80 µM (inactive)
Cc1cc(/C=N/Nc2ncnc(N)c2[N+](=O)[O-])c(C)n1-c1ccccc1,EC50,[9],< 0.31 µM (inactive)
same,EC50,[10],0.171 µM (active)
same,IC50,HEK293 [11],> 20 µM (inactive)
same,EC50,[12],3.67 µM (active)
same,IC50,HEK293 [13],1.4 µM (active)
same,IC50,HEK293 [14],6.1 µM (active)
same,IC50,HEK293 [15],> 20 µM (inactive)
same,EC50,[16],0.192 µM (active)
same,EC50,[17],< 0.1 µM (active)
same,EC50,HEK293 [18],4.14 µM (active)
same,EC50,[19],1.1 µM (active)
CN(C)c1ccnc(-c2ccccc2C(F)(F)F)n1,AC50,Cytochrome P450 3A4,inconclusive
